Results as given in patent US9006250B2, “4-amino-6-(heterocyclic)picolinates and 6-amino-2-(heterocyclic)pyrimidine-4-carboxylates and their use as herbicides” (Dow AgroSciences, LLC, priority 2013, dated 2015).

The molecules below were run on EPHHL: wild poinsettia (Euphorbia heterophylla) (assay: Post-Emergent Test II herbicidal activity). Settings: post-emergence, 336 h, 35 g ai/ha, 14 days, read-out: Visual Growth Reduction (%) 14 Days After Application EPHHL.
Type: in vivo
Method: (§1) Post-Emergent Test II: Seeds or nutlets of the desired test plant species were planted in Sun Gro Metro-Mix® 360 planting mixture, which typically has a pH of 6.0 to 6.8 and an organic matter content of about 30 percent, in plastic pots with a surface area of 64 square centimeters. When required to ensure good germination and healthy plants, a fungicide treatment and/or other chemical or physical treatment was applied. The plants were grown for 7-21 d in a greenhouse with an approximate 15 h photoperiod which was maintained at about 23-29° C. during the day and 22-28° C. during the night. Nutrients and water were added on a regular basis and supplemental lighting was provided with overhead metal halide 1000-Watt lamps as necessary. The plants were employed for testing when they reached the first or second true leaf stage.
(§2) A weighed amount, determined by the highest rate to be tested, of each test compound was placed in a 25 mL glass vial and was dissolved in 4 mL of a 97:3 v/v mixture of acetone and DMSO to obtain concentrated stock solutions. […] The concentrated stock solutions obtained were diluted with 20 mL of an aqueous mixture containing acetone, water, isopropyl alcohol, DMSO, Atplus 411F crop oil concentrate, and Triton® X-155 surfactant in a 48.5:39:10:1.5:1.0:0.02 v/v ratio to obtain spray solutions containing the highest application rates. Additional application rates were obtained by serial dilution of 12 mL of the high rate solution into a solution containing 2 mL of 97:3 v/v mixture of acetone and DMSO and 10 mL of an aqueous mixture containing acetone, water, isopropyl alcohol, DMSO, Atplus 411F crop oil concentrate, and Triton X®-155 surfactant in a 48.5:39:10:1.5:1.0:0.02 v/v ratio to obtain ½×, ¼×, ⅛× and 1/16× rates of the high rate. Compound requirements are based upon a 12 mL application volume at a rate of 187 liters per hectare (L/ha). Formulated compounds were applied to the plant material with an overhead Mandel track sprayer equipped with 8002E nozzles calibrated to deliver 187 L/ha over an application area of 0.503 square meters at a spray height of 18 inches […] above the average plant canopy height. Control plants were sprayed in the same manner with the solvent blank.
(§3) The treated plants and control plants were placed in a greenhouse as described above and watered by subirrigation to prevent wash-off of the test compounds. After 14 d, the condition of the test plants as compared with that of the untreated plants was determined visually and scored on a scale of 0 to 100 percent where 0 corresponds to no injury and 100 corresponds to complete kill.
For `Nc1c(F)c(-c2ccc3nsnc3c2)nc(C(=O)O)c1Cl` [Compound 12], the pest or weed control at 35 g/ha was 95 to 100%.

Same assay, conditions: post-emergence, 336 h, 70 g ai/ha, 14 days, read-out: Visual Growth Reduction (%) 14 Days After Application EPHHL
With `Nc1c(F)c(-c2ccc3nsnc3c2)nc(C(=O)O)c1Cl` [Compound 12] the pest or weed control at 70 g/ha was 95 to 100%.

Same assay, conditions: post-emergence, 336 h, 140 g ai/ha, 14 days, read-out: Visual Growth Reduction (%) 14 Days After Application EPHHL
`Nc1c(F)c(-c2ccc3nsnc3c2)nc(C(=O)O)c1Cl` [Compound 12] was tested, and the pest or weed control at 140 g/ha was 95 to 100%.

These molecules were tested on HELAN: sunflower (Helianthus annuus) (assay: Post-Emergent Test II herbicidal activity). Settings: post-emergence, 336 h, 35 g ai/ha, 14 days, read-out: Visual Growth Reduction (%) 14 Days After Application HELAN.
Type: in vivo
Method: as §1, §2, §3
For `Nc1c(F)c(-c2ccc3nsnc3c2)nc(C(=O)O)c1Cl` [Compound 12], the pest or weed control at 35 g/ha was 95 to 100%.

Same assay, conditions: post-emergence, 336 h, 70 g ai/ha, 14 days, read-out: Visual Growth Reduction (%) 14 Days After Application HELAN
For `Nc1c(F)c(-c2ccc3nsnc3c2)nc(C(=O)O)c1Cl` [Compound 12], the pest or weed control at 70 g/ha was 95 to 100%.

Same assay, conditions: post-emergence, 336 h, 140 g ai/ha, 14 days, read-out: Visual Growth Reduction (%) 14 Days After Application HELAN
Molecule `Nc1c(F)c(-c2ccc3nsnc3c2)nc(C(=O)O)c1Cl` [Compound 12] has a pest or weed control at 140 g/ha of 95 to 100%.

What follows are molecules tested on ORYSA: rice (Oryza sativa) (assay: Post-Emergent Test II herbicidal activity). Settings: post-emergence, 336 h, 35 g ai/ha, 14 days, read-out: Visual Growth Reduction (%) 14 Days After Application ORYSA.
Type: in vivo
Method: as §1, §2, §3
With `Nc1c(F)c(-c2ccc3nsnc3c2)nc(C(=O)O)c1Cl` [Compound 12] the pest or weed control at 35 g/ha was 0 to 29%.

Same assay, conditions: post-emergence, 336 h, 70 g ai/ha, 14 days, read-out: Visual Growth Reduction (%) 14 Days After Application ORYSA
`Nc1c(F)c(-c2ccc3nsnc3c2)nc(C(=O)O)c1Cl` [Compound 12] was tested, and the pest or weed control at 70 g/ha was 0 to 29%.

Same assay, conditions: post-emergence, 336 h, 140 g ai/ha, 14 days, read-out: Visual Growth Reduction (%) 14 Days After Application ORYSA
`Nc1c(F)c(-c2ccc3nsnc3c2)nc(C(=O)O)c1Cl` [Compound 12] was tested, and the pest or weed control at 140 g/ha was 0 to 29%.

Each molecule was assayed on SETFA: giant foxtail (Setaria faberi) (assay: Post-Emergent Test II herbicidal activity). Settings: post-emergence, 336 h, 35 g ai/ha, 14 days, read-out: Visual Growth Reduction (%) 14 Days After Application SETFA.
Type: in vivo
Method: as §1, §2, §3
`Nc1c(F)c(-c2ccc3nsnc3c2)nc(C(=O)O)c1Cl` [Compound 12] showed a pest or weed control at 35 g/ha of 0 to 29%.

Same assay, conditions: post-emergence, 336 h, 70 g ai/ha, 14 days, read-out: Visual Growth Reduction (%) 14 Days After Application SETFA
`Nc1c(F)c(-c2ccc3nsnc3c2)nc(C(=O)O)c1Cl` [Compound 12] showed a pest or weed control at 70 g/ha of 0 to 29%.

Same assay, conditions: post-emergence, 336 h, 140 g ai/ha, 14 days, read-out: Visual Growth Reduction (%) 14 Days After Application SETFA
Molecule `Nc1c(F)c(-c2ccc3nsnc3c2)nc(C(=O)O)c1Cl` [Compound 12] has a pest or weed control at 140 g/ha of 75 to 84%.

Each molecule was assayed on TRZAS: wheat, spring (Triticum aestivum) (assay: Post-Emergent Test II herbicidal activity). Settings: post-emergence, 336 h, 35 g ai/ha, 14 days, read-out: Visual Growth Reduction (%) 14 Days After Application TRZAS.
Type: in vivo
Method: as §1, §2, §3
For `Nc1c(F)c(-c2ccc3nsnc3c2)nc(C(=O)O)c1Cl` [Compound 12], the pest or weed control at 35 g/ha was 0 to 29%.

Same assay, conditions: post-emergence, 336 h, 70 g ai/ha, 14 days, read-out: Visual Growth Reduction (%) 14 Days After Application TRZAS
With `Nc1c(F)c(-c2ccc3nsnc3c2)nc(C(=O)O)c1Cl` [Compound 12] the pest or weed control at 70 g/ha was 0 to 29%.

Same assay, conditions: post-emergence, 336 h, 140 g ai/ha, 14 days, read-out: Visual Growth Reduction (%) 14 Days After Application TRZAS
With `Nc1c(F)c(-c2ccc3nsnc3c2)nc(C(=O)O)c1Cl` [Compound 12] the pest or weed control at 140 g/ha was 0 to 29%.

Each molecule was assayed on ZEAMX: maize, corn (Zea mays) (assay: Post-Emergent Test II herbicidal activity). Settings: post-emergence, 336 h, 35 g ai/ha, 14 days, read-out: Visual Growth Reduction (%) 14 Days After Application ZEAMX.
Type: in vivo
Method: as §1, §2, §3
With `Nc1c(F)c(-c2ccc3nsnc3c2)nc(C(=O)O)c1Cl` [Compound 12] the pest or weed control at 35 g/ha was 60 to 74%.

Same assay, conditions: post-emergence, 336 h, 70 g ai/ha, 14 days, read-out: Visual Growth Reduction (%) 14 Days After Application ZEAMX
`Nc1c(F)c(-c2ccc3nsnc3c2)nc(C(=O)O)c1Cl` [Compound 12] showed a pest or weed control at 70 g/ha of 60 to 74%.

Same assay, conditions: post-emergence, 336 h, 140 g ai/ha, 14 days, read-out: Visual Growth Reduction (%) 14 Days After Application ZEAMX
`Nc1c(F)c(-c2ccc3nsnc3c2)nc(C(=O)O)c1Cl` [Compound 12] gave a pest or weed control at 140 g/ha of 75 to 84%.
